The values that follow are results of earlier work, collected in patent US11261215B2, “Somatostatin prodrugs” (YISSUM RESEARCH DEVELOPMENT COMPANY OF THE HEBREW …, priority 2017, dated 2022).

Numbered stars: 1 amine (or outer) side, 2 acyl side, 3 side chain; on linkers, the order of the positions; unused ones are H or OH. Bridge positions count the residues as written; N and C are the ends. Square brackets hold non-standard residues; d marks the D form. Ends that are not written are not given here. PheC3 = Phe building unit, N-alpha-omega-functionalized derivative for backbone cyclization; N(2-aminoethyl)Phe = O=C([C@H](Cc1ccccc1)N(CCN[*:3])[*:1])[*:2]; dNMeW = CN[C@H](Cc1c[nH]c2ccccc12)C(=O)O; NMeF = CN[C@@H](Cc1ccccc1)C(=O)O; NMeK = CN[C@@H](CCCCN)C(=O)O

The test system of data set [1] is GH, glucagon and insulin secretion. The following applies: cited from earlier work.
In a further data set the test system is somatostatin receptors. The settings on record: cited from earlier work.
For data set [2] the following is noted: rats, oral administration; cited from earlier work.
A further data set addresses SSTR5 (Homo sapiens, UniProt P35346). The following applies: cited from earlier work.
Data set [3] relates to amylase and lipase release from the pancreas. The settings on record: in vivo; cited from earlier work.

SSTR5, sequence (P35346 whole entry, species assumed): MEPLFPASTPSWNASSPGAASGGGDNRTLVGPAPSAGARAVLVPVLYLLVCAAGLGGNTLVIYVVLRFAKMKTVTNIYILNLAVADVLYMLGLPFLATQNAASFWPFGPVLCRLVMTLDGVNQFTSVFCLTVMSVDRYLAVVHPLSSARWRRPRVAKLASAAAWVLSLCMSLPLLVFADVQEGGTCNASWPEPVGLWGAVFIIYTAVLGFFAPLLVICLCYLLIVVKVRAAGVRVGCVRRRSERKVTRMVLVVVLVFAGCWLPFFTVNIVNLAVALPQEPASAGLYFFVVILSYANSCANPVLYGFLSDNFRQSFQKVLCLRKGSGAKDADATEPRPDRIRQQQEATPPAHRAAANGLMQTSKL

As for “GABA-Phe-Trp-DTrp-Lys-Thr-Phe-GlyC3-NH2 (XFWWKTFG; not fully specified; GABA, backbone cyclized, C-terminal amide; MOD_RES (1)..(1) 4Abu, GABA; MOD_RES (1)..(8) backbone-to-end cyclization between the N-alpha-omega-functionalized derivative of GlyC3 and the N-terminus; MOD_RES (4)..(4) D-Trp; MOD_RES (8)..(8) AMIDATION; MOD_RES (8)..(8) GlyC3 building unit) [PTR-3173]”, the “effect on insulin secretion” value in data set [1] (at physiological concentrations) was “no effect”. Further, in data set [1] (in vivo), the “GH:insulin potency ratio” value was > 10,000 and the “potency in the in vivo inhibition of GH relative to that of glucagon” value is recorded as 1000 fold. The “selectivity toward the somatostatin receptors” value in the data set with somatostatin receptors is “selective towards the SSTR2, SSTR4 and SSTR5”.
As for “c(PF(NMe)w(NMe)KT(NMe)F) (cyclo(PF[dNMeW][NMeK]T[NMeF]); SMILES C[C@@H](O)[C@@H]1NC(=O)[C@H](CCCCN)N(C)C(=O)[C@@H](Cc2c[nH]c3ccccc23)N(C)C(=O)[C@H](Cc2ccccc2)NC(=O)[C@@H]2CCCN2C(=O)[C@H](Cc2ccccc2)N(C)C1=O) [Somato8]”, in data set [2], the “calculated absolute oral bioavailability” value is reported as about 10%.
Regarding “PheN2-Tyr-DTrp-Lys-Val-PheC3-Thr-NH2 ([N(2-aminoethyl)Phe]Y[dW]KV[PheC3]T-NH2; bridge 1-6; not fully specified (bridges); printed as PheN2-Tyr-DTrp-Lys-Val-PheC3-Thr-NH2) [PTR-3046]”, the “GH or glucagon release” value in data set [1] (in vivo) is “without inhibiting”. Moreover, the “selectivity toward the somatostatin receptors” value in the data set on somatostatin receptors is given as “selective toward the SSTR5”. For the same substance, the IC50 result in the data set with SSTR5 is “nanomolar range”. In addition, in data set [3], the “bombesin- and caerulein-induced amylase and lipase release from the pancreas” value is “inhibits”.
With “PheC3-Cys-Phe-DTrp-Lys-Thr-Cys-Phe-PheN3-X (FCFWKTCFF; not fully specified; backbone cyclized; MOD_RES (1)..(1) PheC3 building unit; MOD_RES (1)..(9) backbone cyclization between the N-alpha-omega- functionalized derivative of X1 and the N-alpha-omega- functionalized derivative of X9; DISULFID (2)..(7) bridge; MOD_RES (4)..(4) D-Trp; MOD_RES (9)..(9) PheN3 building unit; MOD_RES (9)..(9) AMIDATION) [PTR-3205]”, the “selectivity toward the somatostatin receptors” value with somatostatin receptors is reported as “selective towards SSTR2”.
